We go through 17 molecules from ChEMBL document CHEMBL5257035, “Nucleoside Derived Antibiotics to Fight Microbial Drug Resistance: New Utilities for an Established Class of Drugs?” (J Med Chem, 2016).

Converted amounts (≈) assume the structure as drawn.

For one experiment, the system named is Staphylococcus aureus. In words: Antimicrobial activity against methicillin-resistant Staphylococcus aureus 10925 assessed as reduction in microbial growth by broth microdilution method. The experiment is classed as functional. In general terms: In broth dilution the organism is exposed to a series of concentrations in liquid medium.
Experiment [1] deals with Candida albicans. As to the kind of experiment: […] activity against Candida albicans assessed as […] measured after 24 hrs by microtitre dilution method. It is filed as functional.
In the next experiment the test system is Aspergillus fumigatus. As to the kind of experiment: Antifungal activity against Aspergillus fumigatus assessed as inhibition of fungal growth. It is filed as functional.
For experiment [2], the system named is Candida albicans. As to the kind of experiment: Antifungal activity against Candida albicans assessed as inhibition of fungal growth. The experiment is classed as functional.
Experiment [3] addresses Phospho-N-acetylmuramoyl-pentapeptide-transferase (Bacillus subtilis (strain 168), UniProt Q03521). In words: Inhibition of Bacillus subtilis MraY.
The subject of experiment [4] is Pseudomonas aeruginosa. As to the kind of experiment: Antibacterial activity against Pseudomonas aeruginosa assessed as bacterial growth reduction. It is filed as functional.
Experiment [5] relates to Pseudomonas aeruginosa. As to the kind of experiment: Antimicrobial activity against Pseudomonas aeruginosa ATCC 27853 assessed as inhibition of microbial growth.
Experiment [6] relates to Pseudomonas aeruginosa. As to the kind of experiment: Antibacterial activity against Pseudomonas aeruginosa assessed as reduction in bacterial growth. It is filed as functional.
In experiment [7] the test system is Cryptococcus neoformans. In words: Antifungal activity against Cryptococcus neoformans assessed as reduction in fungal growth. The experiment is classed as functional.
A further experiment concerns Aspergillus niger. As to the kind of experiment: Antifungal activity against Aspergillus niger MTCC 282 assessed as reduction in microbial growth measured after 48 hrs by broth dilution method. The experiment is classed as functional.
The test system of a further experiment is Coccidioides immitis. As to the kind of experiment: Antifungal activity against Coccidioides immitis assessed as reduction in fungal growth. The experiment is classed as functional.
Experiment [8] relates to Cryptococcus neoformans. In words: Antifungal activity against Cryptococcus neoformans assessed as fungal growth inhibition. The experiment is classed as functional.
In a further experiment the test system is Fusarium oxysporum. As to the kind of experiment: Antifungal activity against Fusarium oxysporum assessed as inhibition of fungal growth. The experiment is classed as functional.
Experiment [9] deals with Pseudomonas aeruginosa. As to the kind of experiment: Antibacterial activity against Pseudomonas aeruginosa ATCC 27853 assessed as bacterial growth inhibition at 32 ug/ml measured after 16 hrs by broth microdilution method. The experiment is classed as functional. The conditions noted are these: dose 32 µg/ml.
Another experiment concerns the target Proline--tRNA ligase (Escherichia coli, UniProt P16659). As to the kind of experiment: Binding affinity to Escherichia coli K12 Prolyl-tRNA synthetase.
The subject of another experiment is Escherichia coli. As to the kind of experiment: Antibacterial activity against Escherichia coli K12 assessed as bacterial growth inhibition by broth microdilution method. The experiment is classed as functional.
Experiment [10] can be described thus: Inhibition of Bacillus stearothermophilus tyrosyl tRNA synthetase. On the set-up: species or system Geobacillus stearothermophilus.
Experiment [11] is described as follows: Inhibition of Candida albicans SC5314 chitin synthase using UDP-GlcNAc as substrate incubated for 1 hr.
For another experiment, the system named is Streptococcus pyogenes. In words: Antimicrobial activity against Streptococcus pyogenes ATCC 12344 assessed as reduction in microbial growth by broth microdilution method. The experiment is classed as functional.

Chain of Phospho-N-acetylmuramoyl-pentapeptide-transferase (Q03521 whole entry): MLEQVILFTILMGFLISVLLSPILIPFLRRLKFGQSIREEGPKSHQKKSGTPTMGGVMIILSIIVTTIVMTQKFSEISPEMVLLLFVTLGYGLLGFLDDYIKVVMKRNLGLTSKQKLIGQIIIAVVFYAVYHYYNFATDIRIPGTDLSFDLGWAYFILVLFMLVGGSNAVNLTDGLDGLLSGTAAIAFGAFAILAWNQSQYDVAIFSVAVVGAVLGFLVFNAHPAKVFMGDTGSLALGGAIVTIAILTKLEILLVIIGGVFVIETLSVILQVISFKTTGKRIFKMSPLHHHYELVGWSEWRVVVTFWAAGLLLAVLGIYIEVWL
Chain of Proline--tRNA ligase (P16659 whole entry): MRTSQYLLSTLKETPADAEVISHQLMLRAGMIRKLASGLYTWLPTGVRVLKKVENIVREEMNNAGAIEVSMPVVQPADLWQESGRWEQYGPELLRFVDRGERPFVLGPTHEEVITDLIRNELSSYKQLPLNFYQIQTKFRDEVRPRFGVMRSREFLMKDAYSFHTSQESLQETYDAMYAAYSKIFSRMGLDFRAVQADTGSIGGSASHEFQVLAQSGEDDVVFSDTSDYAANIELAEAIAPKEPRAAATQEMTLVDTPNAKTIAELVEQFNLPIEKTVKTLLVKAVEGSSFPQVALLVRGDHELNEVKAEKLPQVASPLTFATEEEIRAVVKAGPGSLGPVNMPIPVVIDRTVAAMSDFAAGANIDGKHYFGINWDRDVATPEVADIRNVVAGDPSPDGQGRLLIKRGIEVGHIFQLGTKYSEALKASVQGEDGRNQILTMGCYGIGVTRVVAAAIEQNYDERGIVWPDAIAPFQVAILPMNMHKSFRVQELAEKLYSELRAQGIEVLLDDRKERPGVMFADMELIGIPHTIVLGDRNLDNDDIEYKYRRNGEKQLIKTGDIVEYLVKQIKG

As to `Nc1ccn([C@@H]2O[C@H](CO)[C@@H](O)C2(F)F)c(=O)n1` [GEMCITABINE], the MIC (commonly the smallest concentration in the dilution series that meets the test's criterion for growth inhibition) in the experiment on Staphylococcus aureus turned out to be 2 ng/mL.
For the molecule `NC(=O)OC[C@H](O)[C@@H](O)[C@H](N)C(=O)N[C@H](C(=O)O)[C@H]1O[C@@H](n2cc(C=O)[nH]c2=O)[C@H](O)[C@@H]1O`, the MIC in the experiment on Candida albicans [1] came to 6 µg/mL (≈ 12.6 µM).
On to `O=C(OC[C@H]1O[C@@H](n2ccc(=O)[nH]c2=O)[C@H](O)[C@@H]1O)c1ccccc1O`, for which the MIC in the experiment on Aspergillus fumigatus and in the experiment on Candida albicans [2] was 1000 µg/mL (≈ 2740 µM) throughout.
In the case of `C[C@@H](NC(=O)N[C@@H](Cc1c[nH]c2ccccc12)C(=O)O)C(=O)N[C@H](C(=O)N/C=C1/C[C@@H](O)[C@H](n2ccc(=O)[nH]c2=O)O1)[C@H](C)N(C)C(=O)[C@@H](N)CN`, the IC50 (usually the concentration that gives 50% inhibition) in experiment [3] was found to be 22 nM. Besides, the results for the MIC in the experiment on Pseudomonas aeruginosa [4], in the experiment on Pseudomonas aeruginosa [5] and in the experiment with Pseudomonas aeruginosa [6] were 16 µg/mL (≈ 22 µM), 4 µg/mL and 32 µg/mL (≈ 44 µM), respectively.
Take `CC(C)C[C@H](N)C(=O)N[C@H](C(=O)O)[C@@H]1C[C@@H](O)[C@@H](O)[C@H](n2ccc(=O)[nH]c2=O)O1`: the MIC in the experiment with Cryptococcus neoformans [7] turned out to be 0.25 µg/mL (≈ 0.603 µM); in the experiment on Aspergillus niger, 0.03 µg/mL; in the experiment with Coccidioides immitis it was 0.25 µg/mL (≈ 0.603 µM).
For the molecule `O=C(OC[C@H]1O[C@@H](n2ccc(=O)[nH]c2=O)[C@H](O)[C@@H]1O)c1cc(O)ccc1O`, the MIC with Aspergillus fumigatus and in the experiment on Candida albicans [2] was 1000 µg/mL (≈ 2630 µM) throughout.
`CC1(C)O[C@@H]2[C@H](O1)[C@@H](Cn1cc(COc3ccc(Cl)cc3)nn1)O[C@H]2n1ccc(=O)[nH]c1=O`: the MIC with Cryptococcus neoformans [8] was 8 µg/mL (≈ 16.8 µM); in the experiment with Fusarium oxysporum, 32 µg/mL (≈ 67.2 µM); in the experiment on Candida albicans [2], 24 µg/mL (≈ 50.4 µM).
With `CCCCCCCCCCCCCCCCC(=O)NC(CCCCCCCCCCCCCCC)C(=O)[C@H](NCCCC(=O)NCCCCNC(=N)N)[C@H](O[C@@H]1O[C@H](CN)[C@@H](O)[C@H]1O)[C@H]1O[C@@H](n2ccc(=O)[nH]c2=O)[C@H](O)[C@@H]1O` (some centres not stated), the MIC with Pseudomonas aeruginosa [9] stood at 4 µg/mL (≈ 3.56 µM).
Consider `Nc1ncnc2c1ncn2[C@@H]1O[C@H](COS(=O)(=O)NC(=O)[C@@H]2CCCN2)[C@@H](O)[C@H]1O`, for which the inhibition constant (Ki) (commonly the dissociation constant of the complex between target and ligand, obtained from inhibition or displacement) at Proline--tRNA ligase amounted to 4.3 nM.
In the case of `Cc1cn([C@H]2C[C@H](N=[N+]=[N-])[C@@H](CO)O2)c(=O)[nH]c1=O` [ZIDOVUDINE], the MIC in the experiment with Escherichia coli was determined as 10 µg/mL (≈ 37.4 µM).
In experiment [10], `Nc1ncnc2c1ncn2[C@@H]1O[C@H](COP(=O)(O)OCC(N)Cc2ccc(O)cc2)[C@@H](O)[C@H]1O` (some centres not stated) showed a Ki of 11 nM.
Still for that read-out and setting: the same measure for `Nc1ncnc2c1ncn2[C@@H]1O[C@H](COS(=O)(=O)NC(=O)[C@@H](N)Cc2ccc(O)cc2)[C@@H](O)[C@H]1O`: 26 nM.
Consider `Nc1ccc(C(=O)OC[C@H]2O[C@@H](n3ccc(=O)[nH]c3=O)[C@H](O)[C@@H]2O)c(O)c1`, for which the MIC in the experiment with Aspergillus fumigatus and in the experiment with Candida albicans [2] was 1000 µg/mL (≈ 2640 µM) in each case.
Molecule `N[C@@H](Cc1cc2ccccc2c2ccccc12)C(=O)N[C@@H](C(=O)O)[C@H]1O[C@@H](n2ccc(=O)[nH]c2=O)[C@H](O)[C@@H]1O` registered a half-maximal inhibitory concentration (IC50) in experiment [11] of 0.31 µg/mL (≈ 0.58 µM).
Molecule `Nc1ncnc2c1ncn2[C@@H]1O[C@H](COS(=O)(=O)NC(=O)[C@H]2CCCN2)[C@@H](O)[C@H]1O` yielded a Ki at Proline--tRNA ligase of 490 nM. In other words, the sub-micromolar range.
In the case of `O=c1[nH]c(=O)n([C@H]2C[C@H](O)[C@@H](CO)O2)cc1F` [FLOXURIDINE], the MIC with Streptococcus pyogenes was 3 ng/mL.
In the case of `C[C@H](N)C(=O)N[C@@H](C)[C@H](NC(=O)[C@H](C)NC(=O)N[C@@H](Cc1c[nH]c2ccccc12)C(=O)O)C(=O)N/C=C1\O[C@@H](n2ccc(=O)[nH]c2=O)[C@H](O)[C@@H]1O`, in [3], the IC50 is 42 nM.
